Data set [1] is described as follows: Non-specific binding of drugs in human liver microsomes (fu,mic), rapid equilibrium dialysis. It is filed as in vitro ADME. The settings on record: unbound drug fraction in the microsomal mixture, inhibitor 1 µM, 37 °C.
Method: The unbound fraction of the inhibitors in the microsomes (fu,mic) was determined using two-chambered Rapid Equilibrium Dialysis (RED) devices (Thermo Fisher Scientific Inc., Rockford, IL). Triplicate mixtures (200 µl) of 6–8 inhibitors at a final concentration of 1 µM and HLM (0.1 or 0.5 mg/ml) were added to one chamber, and Hank’s buffered salt solution (HBSS) (350 µl) to the other chamber. The dialysis units were incubated at 37 °C for 4 h on an orbital shaker. At the end of the incubation, 20 μl of each sample from the homogenate and buffer chambers was transferred to a 96-well plate. Blank buffer or blank microsomes (20 μl) were added to the samples from the homogenate or buffer chambers, respectively, to yield identical matrices before further sample handling and analysis. […] Here, drug-HLM mixture (100 µl) was transferred to an empty well of the dialysis unit and incubated for the same time. The remaining HLM solution (without drug) was kept as a blank sample. The mass balances calculated at the end of the experiment were consistently >80%.
The nature of data set [2]: Intracellular fraction of unbound drug (fu,cell), dialysis of human hepatocyte homogenate. It is filed as in vitro ADME. Conditions: homogenate of cryopreserved human hepatocytes, geometrical mean ± SD of triplicates.
Method: Cryopreserved human hepatocytes were thawed at 37 °C and transferred to phosphate-buffered saline (PBS). […] The fu,cell values were measured using two-chambered Rapid Equilibrium Dialysis (RED) devices. […] At the end of the incubation, 20 μl of each sample from the homogenate and buffer chambers was transferred to a 96-well plate. […] For the stability test, the cell homogenate and drug mixture (100 µl) was transferred to an empty well of the dialysis unit. […] After incubation, 10-fold and 100-fold dilutions of cell homogenate were prepared on 96-well plates and a mixture of acetonitrile/water (60:40) with internal standard (warfarin) was added to the samples before further sample handling and analysis, which was performed as described above. The fu,hom values were calculated as the ratio of the concentration of the drug in the HBSS chamber (Cbuffer) vs. the cell homogenate chamber (Chom). The protein concentration in the cell homogenate was measured using a BCA Protein Assay Reagent Kit (Pierce Biotechnology, Rockford, IL), according to the manufacturer’s instruction. The total cell volume in each well for 10 × 10^6 primary human hepatocytes was estimated from the protein concentration.
The target in data set [3] is T1, CYP3A (Homo sapiens, UniProt P08684). The experiment in a line: in vitro. Conditions: microsomes, pH 7.4.
T1 sequence (P08684 2-503): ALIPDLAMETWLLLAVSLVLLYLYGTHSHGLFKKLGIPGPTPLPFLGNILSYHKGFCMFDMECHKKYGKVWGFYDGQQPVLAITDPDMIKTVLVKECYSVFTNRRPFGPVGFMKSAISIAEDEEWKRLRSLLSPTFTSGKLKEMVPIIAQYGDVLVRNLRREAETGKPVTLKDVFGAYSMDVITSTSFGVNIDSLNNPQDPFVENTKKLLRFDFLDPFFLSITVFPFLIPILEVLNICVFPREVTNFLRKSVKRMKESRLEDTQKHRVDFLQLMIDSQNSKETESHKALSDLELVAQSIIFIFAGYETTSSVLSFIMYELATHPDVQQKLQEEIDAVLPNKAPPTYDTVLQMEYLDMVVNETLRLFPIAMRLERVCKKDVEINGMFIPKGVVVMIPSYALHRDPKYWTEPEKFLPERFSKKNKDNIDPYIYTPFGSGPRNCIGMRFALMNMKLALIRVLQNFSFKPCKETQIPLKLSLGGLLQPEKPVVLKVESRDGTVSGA
The conditions of data set [4]: cited from earlier work.
A short description of data set [5]: Intracellular drug accumulation ratio (Kp) and intracellular bioavailability (Fic) in cryopreserved human hepatocytes. It is filed as in vitro ADME. The settings on record: human, cryopreserved human hepatocytes in suspension; cellular drug accumulation ratio; 0.5 µM drug; no chloroquine; geometrical mean ± SD of triplicates.
Method: (§1) Intracellular drug binding (fu,cell, fraction of unbound drug inside cells) and intracellular drug accumulation (Kp) were measured in two separate experiments for all inhibitors[8], as described in the following sections. Intracellular drug bioavailability (Fic) expresses the ratio between the intracellular unbound drug concentration (Cu,cell) to the drug concentration in the medium (Cmedium).
(§2) Cryopreserved human hepatocytes were thawed as described above and suspended to 1 × 10^6 cell/ml in HBSS (viability 85%). […] The plates were incubated on an orbital shaker (300 rpm) at 37 °C for three time points (15, 30, 45 min), to ensure sufficient time to reach steady-state. At the end of the incubation, the plates were centrifuged for 5 min at 100 × g, and medium samples (20 µl) were collected from the supernatant (Cmedium). Drug uptake was terminated by addition of ice-cold PBS followed by a washing step. […] The total amount of drug in the cells (Acell) was calculated based on the determined drug concentrations.
(§3) The protein concentration in the cell samples was measured as described above and the cell volume (Vcell) calculated. Finally, the Kp was calculated for each drug as the ratio between the total drug concentration in the cell vs. the drug concentration in the medium (Cmedium):4 Kp=Acell/Vcell/Cmedium
Data set [6] deals with human hepatocytes. The description is as above. Conditions: intracellular bioavailability = fu,cell × Kp; human hepatocytes. It is filed as in vitro ADME.
Method: as §1, §2, §3
In data set [7] the target is T1, CYP3A. As to the kind of experiment: in vitro.
The subject of data set [8] is human hepatocytes. As to the kind of experiment: Cytosolic drug accumulation ratio (Kpcyto) and cytosolic bioavailability (Fcyto) in human hepatocytes with chloroquine. Type of data set: in vitro ADME.
For data set [9] the following is noted: blood-to-plasma ratio; Predicted within/obtained from Simcyp; ref Simcyp (Simcyp Limited, UK); cited from earlier work.
Data set [10] addresses T1, CYP3A. Conditions: probe drugs midazolam and simvastatin, in vivo; ref University of Washington Drug Interaction Database; cited from earlier work.

What is called IC50 is the concentration that inhibits the measured activity by half. A low value points to greater potency. A word on the Ki: it is a measure of affinity in units of concentration, obtained from inhibition or displacement. A high value points to lower affinity.

Read-outs that look alike come from different tables or passages of the source.

For `CC[C@H]1OC(=O)[C@H](C)[C@@H](O[C@H]2C[C@@](C)(OC)[C@@H](O)[C@H](C)O2)[C@H](C)[C@@H](O[C@@H]2O[C@H](C)C[C@H](N(C)C)[C@H]2O)[C@](C)(O)C[C@@H](C)/C(=N\OCOCCOC)[C@H](C)[C@@H](O)[C@]1(C)O` [Roxithromycin], the fraction unbound at 4 h, 1 µM turned out to be 0.637 in [1] (HLM 0.1 mg/ml, read-out: fu,mic at 0.1 mg/ml) and 0.612 in data set [1] (HLM 0.5 mg/ml, read-out: fu,mic at 0.5 mg/ml). In data set [2], this compound showed a fraction unbound at 4 h of 0.0241 ± 0.0004. Besides, the midpoint of inhibition in data set [3], the IC50 at 5 min, lay at 82.4 ± 44.9 µM. The compound further registered a Ki at 5 min in data set [3] of 26.2 µM. Further, the ka in data set [4] (absorption rate constant, ref 5,17 (crizotinib), 19-21 (erythromycin), 22-25 (imatinib), 20,32,33 (roxithromycin), 4,34 (telithromycin), 35-40 (verapamil)) was 4.96 h⁻¹. Further, the “Cave,ss” value in [4] (average plasma concentration at steady-state, 300 mg qd) is on record as 5,413 ng/ml. Also, the Fa in [4] (fraction absorbed, ref 5,17 (crizotinib), 6,18 (diltiazem), 19-21 (erythromycin), 22-25 (imatinib), 26-28 (nefazodone), 29,30 (nilotinib), 29,31 (pazopanib), 20,32,33 (roxithromycin), 4,34 (telithromycin)) is reported as 0.86. The “Cmax,ss” value in data set [4] (maximum plasma concentration at steady-state, 300 mg qd) was 10,900 ng/ml. For the same compound, the Kp at 0.5 µM in [5] came out at 5.4 ± 0.3. Besides, the Fic in data set [6] worked out at 0.13 ± 0.01. In addition, the KI (inactivation) was 31.4 ± 16.5 µM in [7] (pH 7.4, KI, inactivation constant, HLM 0.5 mg/ml preincubation 0-30 min, midazolam 20 µM, mean ± SD of triplicates) and 19.2 µM in data set [7] (pH 7.4, KI,u, calculated as fu,mic at 0.5 mg/ml × KI). In addition, in data set [8] (absence vs presence of chloroquine, p ≤ 0.05 in Student’s t-test where called significant), the “Kp compared with Kpcyto” value is “significantly larger”. Moreover, the Kpcyto in data set [8] (cellular drug accumulation ratio in the presence of chloroquine (100 µM, 45 min), 0.5 µM drug) is recorded as 3.3 ± 0.75. For the same compound, the Fcyto in data set [8] (cytosolic bioavailability = fu,cell × Kpcyto, human hepatocytes) was determined as 0.08 ± 0.02. Further, the Fic/Fcyto in [8] (ratio of intracellular to cytosolic bioavailability, human hepatocytes) came out at 1.61. In addition, the B/P in data set [9] is reported as 0.70. For the same compound, the “class of CYP3A inhibitor by increase in AUC of the probe drug” value in data set [10] is recorded as “weak (weak inhibitors causing a ≥1.25 but <2-fold increase)”.
